Results on 87 compounds are retold here after PubChem BioAssay AID1117337 (Cheminformatics & Chemogenomics Research Group (CCRG), …, 2015).

The subject of the assay is ADSC/ECFC co-culture, VEGF-stimulated, CD31 tube area. In words: ADSC/ECFC co-culture angiogenesis inhibition – imaging, VEGF stimulation, CD31 staining, tube area, IC50, dose response (AID 1117337).

The source made the active and inactive calls. No rule for the calls is given here. Where only a bound is given, the exact number is not on record here.

Regarding `O=C(Nc1ccc([N+](=O)[O-])cc1)Nc1ccc([N+](=O)[O-])cc1`, the IC50 (commonly the concentration that inhibits the measured activity by half) was > 10 µM (inactive).
For `CCCCc1ccc2nc(NC(=O)OC)[nH]c2c1`, the IC50 is 0.053 µM.
Turning to `Nc1cc(C(F)(F)F)ccc1S`, the IC50 is > 10 µM (inactive).
To `NC(=O)C1(N2CCCCC2)CCN(CCCN2c3ccccc3CCc3ccc(Cl)cc32)CC1` belongs 3.4 µM; to `CC1CCC(C(C)C)C(OC(=O)c2ccccc2O)C1` (configuration not stated), > 10 µM (inactive); to `CC(C)(C)CC(C)(C)c1ccc(OCCOCC[N+](C)(C)Cc2ccccc2)cc1`, 3.74 µM.
In the case of `CN1CCC[C@@H]1CCO[C@](C)(c1ccccc1)c1ccc(Cl)cc1`, the IC50 was > 10 µM (inactive).
`CC[C@@]1(O)C(=O)OCc2c1cc1n(c2=O)Cc2c-1nc1ccccc1c2/C=N/OC(C)(C)C`: the IC50 is 0.002 µM.
Consider `CCOC(=O)[C@H](CCc1ccccc1)N[C@@H](C)C(=O)N1Cc2cc(OC)c(OC)cc2C[C@H]1C(=O)O`, for which the IC50 was > 10 µM (inactive).
Take `COc1ccc(Cc2nccc3cc(OC)c(OC)cc23)cc1OC`: the IC50 was 7.8 µM (inactive).
For `OC[C@@H](O)[C@H](O)[C@H](O)[C@@H](O)CO`, the IC50 is > 10 µM (inactive).
`O=[N+]([O-])c1cccc(S(=O)(=O)NCCNS(=O)(=O)c2cccc([N+](=O)[O-])c2)c1`: the IC50 was > 10 µM (inactive).
Regarding `Cc1ccc2nc(N)[nH]c(=O)c2c1Sc1ccncc1`, the IC50 is 7.37 µM (inactive).
`Cc1cccc(Nc2cc(Cl)nc(SCC(=O)O)n2)c1C`: the IC50 was > 10 µM (inactive).
In the case of `CCCCN1CCCC1C(=O)Nc1c(C)cc(C)cc1C` (configuration not stated), the IC50 was > 10 µM (inactive).
To `Clc1cc(Cl)c(OCC#CI)cc1Cl` belongs > 10 µM (inactive); to `C[C@@]12C(=O)OC(=O)[C@]1(C)C1CCC2O1`, 1.23 µM; to `CCCCCCOC(=O)c1cccnc1`, > 10 µM (inactive).
Regarding `O=C(NC1CCN(CCc2c[nH]c3ccccc23)CC1)c1ccccc1`, the IC50 was > 10 µM (inactive).
In the case of `CCCCCCCCCCCC(=O)[O][Sn]([CH2]CCC)([CH2]CCC)[O]C(=O)CCCCCCCCCCC`, the IC50 was 2.01 µM.
For `COc1ccc2cc3[n+](cc2c1OC)CCc1cc2c(cc1-3)OCO2`, the IC50 was 2.68 µM.
As for `CC(C)(CO)[C@@H](O)C(=O)NCCC(=O)NCCSSCCNC(=O)CCNC(=O)[C@H](O)C(C)(C)CO`, the IC50 was > 10 µM (inactive).
`c1ccc2c(c1)Sc1ccccc1N2CC1CN2CCC1CC2` (configuration not stated): the IC50 is 9.44 µM (inactive).
In the case of `O=C(O)c1ccc2[nH]cc(CCCCN3CC=C(c4ccccc4)CC3)c2c1`, the IC50 is > 10 µM (inactive).
Then `O=C(CBr)Nc1ccc(Cl)cc1C(=O)c1ccccc1F`, with > 10 µM (inactive).
Then `Oc1ccc2[nH]cc(CCCCN3CC=C(c4ccccc4)CC3)c2c1`, with 4.04 µM.
`Clc1ccccc1C(c1ccccc1)(c1ccccc1)n1ccnc1`: the IC50 was 3.04 µM.
`Cc1c(C)c2c(c(C)c1O)CCC(C)(COc1ccc(CC3SC(=O)NC3=O)cc1)O2` (configuration not stated): the IC50 was 5.14 µM (inactive).
Turning to `CCCCCCCCCCCCCCCC[N+](C)(C)CC`, the IC50 was 1.14 µM.
With `CSc1ccc2c(c1)C(N1CCN(C)CC1)Cc1ccccc1S2` (configuration not stated), the IC50 is > 10 µM (inactive).
On to `CCCCCCCCCCCCCC[N+](C)(C)Cc1ccccc1`, for which the IC50 was 3.01 µM.
For `Cc1c(O)cc2c(c1C)O[C@](C)(CCC[C@H](C)CCC[C@H](C)CCCC(C)C)CC2`, the IC50 was > 10 µM (inactive).
Then `Clc1ccc(CO/N=C(\Cn2ccnc2)c2ccc(Cl)cc2Cl)c(Cl)c1`, with > 10 µM (inactive); and `S=c1nc[nH]c2nc[nH]c12`, with 0.915 µM.
As for `O=c1[nH]c(=O)n([C@H]2C[C@H](O)[C@@H](CO)O2)cc1F`, the IC50 was 0.0216 µM.
For the compound `O=C(NOCC1CC1)c1ccc(F)c(F)c1Nc1ccc(I)cc1Cl`, the IC50 is 0.368 µM.
On to `CC(C)C[C@H](NC(=O)[C@H](CCc1ccccc1)NC(=O)CN1CCOCC1)C(=O)N[C@@H](Cc1ccccc1)C(=O)N[C@@H](CC(C)C)C(=O)[C@@]1(C)CO1`, for which the IC50 is 0.0204 µM.
Turning to `C[C@@H]1C[C@@H]([C@H](O)CC2CC(=O)NC(=O)C2)C(=O)[C@@H](C)C1`, the IC50 is 1.15 µM.
For `O=C(OCCO)c1ccccc1O`, the IC50 is > 10 µM (inactive).
As for `C[S+](CC[C@H](N)C(=O)O)C[C@H]1O[C@@H](n2cnc3c(N)ncnc32)[C@H](O)[C@H]1O` (some centres not stated), the IC50 was > 10 µM (inactive).
Regarding `O=c1c(-c2ccccc2)c1-c1ccccc1`, the IC50 was 3.84 µM.
As for `Cc1ccc2c(Br)cc(Br)c(O)c2n1`, the IC50 was > 10 µM (inactive).
`COC(=O)Nc1nc2ccc(S(=O)c3ccccc3)cc2[nH]1` (configuration not stated): the IC50 was 0.288 µM.
`Cc1cc(OCCOCC[N+](C)(C)Cc2ccccc2)ccc1C(C)(C)CC(C)(C)C`: the IC50 was > 10 µM (inactive).
On to `CC(C)=CCCC(C)=CCCC(C)=CCCC=C(C)CCC=C(C)CCC=C(C)C`, for which the IC50 was > 10 µM (inactive).
As for `Cc1cc(OI)c(C(C)C)cc1-c1cc(C(C)C)c(OI)cc1C`, the IC50 is > 10 µM (inactive).
On to `Cc1ccccc1C(=O)Nc1ccc(C(=O)N2CCCC(N(C)C)c3ccccc32)cc1` (configuration not stated), for which the IC50 is > 10 µM (inactive).
Then `NC(=NCCCCCCN=C(N)/N=C(\N)Nc1ccc(Cl)cc1)/N=C(\N)Nc1ccc(Cl)cc1`, with 1.35 µM.
For the compound `CCOc1ccc2nc3cc(N)ccc3c(N)c2c1`, the IC50 was 4.94 µM.
Then `COc1ccc(-c2nc3ccc(C4=NNC(=O)CC4C)cc3[nH]2)cc1` (configuration not stated), with 2.89 µM; and `OCCN1CCN(CCCN2c3ccccc3Sc3ccc(C(F)(F)F)cc32)CC1`, with > 10 µM (inactive); and `Oc1cc(Cl)ccc1Oc1ccc(Cl)cc1Cl`, with > 10 µM (inactive).
Consider `Oc1ccc(Cl)cc1Cc1cc(Cl)ccc1O`, for which the IC50 was 2.32 µM.
Regarding `O=c1[nH]c(=O)n([C@H]2C[C@H](O)[C@@H](CO)O2)cc1I`, the concentration for half-maximal inhibition (IC50) is 0.681 µM.
Then `CCN1CCC[C@H]1CNC(=O)c1c(OC)ccc(Br)c1OC`, with > 10 µM (inactive).
Then `CCN(CC)C(=O)/C(C#N)=C/c1cc(O)c(O)c([N+](=O)[O-])c1`, with > 10 µM (inactive); and `COc1cc2nc(N3CCN(C(=O)C4COc5ccccc5O4)CC3)nc(N)c2cc1OC` (configuration not stated), with > 10 µM (inactive); and `CCCCCCCCCCCCCCNCCO`, with > 10 µM (inactive).
As to `CCC=CCC=CCC=CCCCCCCCC(=O)O`, the IC50 is > 10 µM (inactive).
Regarding `COc1ccc(/C=C/C(=O)c2ccc(OC)cc2OC)cc1`, the IC50 was 6.66 µM (inactive).
Take `C[C@H]1O[C@@H](O[C@H]2CC[C@@]3(C)[C@H](CC[C@@H]4[C@@H]3C[C@@H](O)[C@]3(C)[C@@H](C5=CC(=O)OC5)CC[C@]43O)C2)C[C@H](O)[C@@H]1O[C@H]1C[C@H](O)[C@H](O[C@H]2C[C@H](O)[C@H](O[C@@H]3O[C@H](CO)[C@@H](O)[C@H](O)[C@H]3O)[C@@H](C)O2)[C@@H](C)O1`: the IC50 is 0.0614 µM.
`CCOP(=S)(OCC)SCSc1ccc(Cl)cc1`: the IC50 is > 10 µM (inactive).
`CC[N+](CC)(CC)CCOc1ccc(/C=C/c2ccccc2)cc1`: the IC50 is > 10 µM (inactive).
To `CN1CCN(c2cc3c(nn2)Oc2ccccc2N3C)CC1` belongs > 10 µM (inactive).
For `CC(C)CCCC(C)NCCC(C)C` (configuration not stated), the IC50 is > 10 µM (inactive).
`Cc1c(O)cccc1C(=O)N[C@@H](CSc1ccccc1)[C@H](O)CN1C[C@H]2CCCC[C@H]2C[C@H]1C(=O)NC(C)(C)C`: the IC50 is > 10 µM (inactive).
On to `C#C[C@]1(OC(C)=O)CC[C@H]2[C@@H]3CCC4=C/C(=N/O)CC[C@@H]4[C@H]3CC[C@@]21CC`, for which the IC50 is > 10 µM (inactive).
Regarding `CC(C)(C)C(=O)OCOP(=O)(COCCn1cnc2c(N)ncnc21)OCOC(=O)C(C)(C)C`, the IC50 is 0.391 µM.
Then `COc1ccccc1OCCNCC(O)COc1cccc2[nH]c3ccccc3c12` (configuration not stated), with > 10 µM (inactive).
On to `COC1=C(OC)C(=O)C(CCCCCCCCCCO)=C(C)C1=O`, for which the IC50 was > 10 µM (inactive).
Take `COCc1c(C(C)C)nc(C(C)C)c(/C=C/[C@@H](O)C[C@@H](O)CC(=O)O)c1-c1ccc(F)cc1`: the IC50 was 0.0894 µM.
As for `O=C(Nc1ccc(S(=O)(=O)N2CCOCC2)cc1)c1cc(Cl)ccc1NS(=O)(=O)c1ccc(Cl)s1`, the IC50 was > 10 µM (inactive).
To `CC[C@@H]([C@H](C)O)n1ncn(-c2ccc(N3CCN(c4ccc(OC[C@@H]5CO[C@@](Cn6cncn6)(c6ccc(F)cc6F)C5)cc4)CC3)cc2)c1=O` belongs 6.46 µM (inactive).
`CCc1oc2ccccc2c1C(=O)c1cc(I)c(O)c(I)c1`: the IC50 is 5.85 µM (inactive).
As for `COc1ccc([C@@H]2Sc3ccccc3NC(=O)[C@@H]2O)cc1`, the IC50 was > 10 µM (inactive).
As to `CC(=O)Oc1cccc2c1C(=O)c1c(OC(C)=O)cc(C(=O)O)cc1C2=O`, the IC50 is > 10 µM (inactive).
For the compound `O=C(Nc1ccc([N+](=O)[O-])cc1Cl)c1cc(Cl)ccc1O`, the IC50 is 0.112 µM.
As to `O=C1c2ccccc2C(=O)C1C(=O)C(c1ccccc1)c1ccccc1`, the IC50 is > 10 µM (inactive).
Turning to `CCCSc1ccc2nc(NC(=O)OC)[nH]c2c1`, the IC50 is 0.355 µM.
For the compound `CCCCCCCCCCCCCCCC(=O)OCC=C(C)C=CC=C(C)C=CC1=C(C)CCCC1(C)C`, the IC50 is > 10 µM (inactive).
As to `O=c1[nH]c(=O)n([C@H]2C[C@H](O)[C@@H](CO)O2)cc1Br`, the IC50 was 3.85 µM.
Consider `CC(=O)Oc1ccc(C2(c3ccc(OC(C)=O)cc3)Oc3ccccc3NC2=O)cc1`, for which the IC50 is 2.27 µM.
Turning to `COC(=O)C1=C(C)NC(C)=C(C(=O)OC(C)(C)CN(C)CCC(c2ccccc2)c2ccccc2)C1c1cccc([N+](=O)[O-])c1` (configuration not stated), the IC50 is > 10 µM (inactive).
As to `CCCCCCCCCCOCC(O)CN` (configuration not stated), the IC50 was 6.55 µM (inactive).
Turning to `CSc1ccc2c(c1)N(CCC1CCCCN1C)c1ccccc1S2` (configuration not stated), the IC50 was > 10 µM (inactive).
To `Oc1ccc(Cl)cc1Sc1cc(Cl)ccc1O` belongs 3.53 µM.
As to `CCC1Nc2cc(Cl)c(S(N)(=O)=O)cc2S(=O)(=O)N1` (configuration not stated), the IC50 is > 10 µM (inactive).
